The text below walks through data of patent publication US20260001893A1, “SMALL MOLECULE MODULATORS OF STAT6” (Gilead Sciences, Inc., priority 2024, published 2026).

The subject of the test is Eotaxin-3 (CCL26) release in human whole blood stimulated with IL-4. The experiment in a line: Human whole blood eotaxin-3 assay (IL-4 stimulated eotaxin-3 release). As to conditions: Homo sapiens, 48 h, human whole blood stimulated with recombinant human IL-4, 48 h, geometric mean; for EC50: inhibition of eotaxin-3 release, given for test compounds with >80% Emax. Type of test: cell-based. How it is done:
Human Whole Blood Eotaxin-3 Assay
This was a human whole blood assay using recombinant human Interleukin 4 to stimulate the blood and measuring the ability of the test compounds to inhibit eotaxin-3 release. The biological activities of the test compounds have been tested in human whole blood stimulated with IL-4 measuring Eotaxin-3 release. The test compounds were added to 384 well clear flat-bottom plate in a 4-fold serial dilution in triplicates using a liquid handler. Human whole blood stabilized in lithium-heparin tubes was added in a volume of 65 μL per well, resulting in a final DMSO concentration of 0.5%. The plate is incubated for 2 h at 37° C. under 5% CO2/95% air. Subsequently, 5 μL of recombinant human IL-4 (R&D Systems, cat #204-ILB) was added to the wells to a final concentration of […]. The plate was incubated for 48 h at 37° C. under 5% CO2/95% air. The plate was spun down for 10 minutes at 500×g and 20 μL supernatant was harvested and transferred to a 384 well v-bottom plate using a liquid handler and stored at −20° C. until further analysis. 10 μL supernatant was used to measure the level of Eotaxin-3 (CCL26) using Human Eotaxin-3 MSD kit from Mesocsale (Cat #K251UEK-4). The assay was performed according to the manufacture instructions.
The data from the human whole blood eotaxin-3 assay is shown below for Examples 1ab3, 1ab6, 1d23, and 1d4 (where the effect in % is plotted against the test concentration in M on a log-scale).

Bounds are passed on as bounds.

For `Cc1cc(C(=O)N(C)C)cc(F)c1C1=CCN(Cc2cc3c(-n4ccc(N)c(C)c4=O)ccnc3n2C)CC1` [Example 1m87, 4-(1-((4-(4-amino-3-methyl-2-oxopyridin-1 (2H)-yl)-1-methyl-1H-pyrrolo[2,3-b]pyridin-2-yl)methyl)-1,2,3,6-tetrahydropyridin-4-yl)-3-fluoro-N,N,5-trimethylbenzamide], the EC50 was 4.55 nM.

For `CNc1ccn(-c2ccnc3[nH]c(C(C)N4CC=C(c5c(C)cc(C(=O)N(C)C)cc5F)CC4)cc23)c(=O)c1` (stereo not shown) [Example 1m85, 3-fluoro-N,N,5-trimethyl-4-(1-(1-(4-(4-(methylamino)-2-oxopyridin-1 (2H)-yl)-1H-pyrrolo[2,3-b]pyridin-2-yl)ethyl)-1,2,3,6-tetrahydropyridin-4-yl)benzamide], the EC50 was 128 nM. The same measure, in the same setting: in the case of `CNc1ccn(-c2ccnc3c2cc(CN2CCC(c4c(F)cc(C(=O)N(C)C)cc4F)CC2)n3C)c(=O)n1` [Example 1m95, 3,5-difluoro-N,N-dimethyl-4-(1-((1-methyl-4-(4-(methylamino)-2-oxopyrimidin-1 (2H)-yl)-1H-pyrrolo[2,3-b]pyridin-2-yl)methyl)piperidin-4-yl)benzamide] it was 44.6 nM.

With `CNc1ccn(-c2ccnc3c2cc(CN2CC=C(c4c(F)cc(C(=O)N(C)C)cc4F)CC2)n3C)c(=O)c1` [Example 1m90, 3,5-difluoro-N,N-dimethyl-4-(1-((1-methyl-4-(4-(methylamino)-2-oxopyridin-1 (2H)-yl)-1H-pyrrolo[2,3-b]pyridin-2-yl)methyl)-1,2,3,6-tetrahydropyridin-4-yl)benzamide], the 50% effective concentration (EC50) was found to be 28.8 nM.

`Cc1cc(C(=O)N(C)C)cc(F)c1C1=CCN([C@@H](C)c2cc3c(-n4cc(F)c(N)c(F)c4=O)ccnc3n2C)CC1` [Example 1m132, (S)-4-(1-(1-(4-(4-amino-3,5-difluoro-2-oxopyridin-1 (2H)-yl)-1-methyl-1H-pyrrolo[2,3-b]pyridin-2-yl)ethyl)-1,2,3,6-tetrahydropyridin-4-yl)-3-fluoro-N,N,5-trimethylbenzamide]: the EC50 is 10.8 nM.

In the case of `CNc1ccn(-c2ccnc3c2cc([C@@H](C)N2CC[C@@H](c4c(C)cc(C(=O)N(C)C)cc4F)C(F)(F)C2)n3C)c(=O)c1` (single isomer, unassigned) [Example 1m143], the EC50 was determined as 855 nM. For `C[C@H](c1cc2c(-n3ccc4c(c3=O)CCN4)ccnc2n1C)N1CCC(c2c(F)cc(C(=O)N(C)C)cc2F)CC1` [Example 1m127, (R)-3,5-difluoro-N,N-dimethyl-4-(1-(1-(1-methyl-4-(4-oxo-1,2,3,4-tetrahydro-5H-pyrrolo[3,2-c]pyridin-5-yl)-1H-pyrrolo[2,3-b]pyridin-2-yl)ethyl)piperidin-4-yl)benzamide], the EC50 is 49.5 nM.

Take `CN(C)C(=O)c1cc(F)c(C2CCN(Cc3cc4c(-n5ccc6c(c5=O)CCN6)ccnc4n3C)CC2)c(F)c1` [Example 1m110, 3,5-difluoro-N,N-dimethyl-4-(1-((1-methyl-4-(4-oxo-1,2,3,4-tetrahydro-5H-pyrrolo[3,2-c]pyridin-5-yl)-1H-pyrrolo[2,3-b]pyridin-2-yl)methyl)piperidin-4-yl)benzamide]: the EC50 stood at 15.1 nM. Turning to `CNc1ccn(-c2ccnc3c2cc([C@@H](C)N2CC=C(c4c(C)cc(C(=O)N(C)C)nc4C)CC2)n3C)c(=O)c1` (single isomer, unassigned) [Example 1m100], the EC50 stood at 440 nM.

On to `CNc1ccn(-c2ccnc3c2cc(CN2CCC(c4ccc(C(=O)N(C)C)cc4)C[C@H]2C)n3C)c(=O)c1` (stereo in doubt) [Example 1d41, N,N-dimethyl-4-[(2R,4S)-2-methyl-1-[[1-methyl-4-[4-(methylamino)-2-oxo-1-pyridyl]pyrrolo[2,3-b]pyridin-2-yl]methyl]-4-piperidyl]benzamide], for which the EC50 turned out to be 279 nM.

On to `[2H]C([2H])([2H])N(C(=O)c1cc(C)c(C2=CCN(Cc3cc4c(-n5ccc(N)cc5=O)ccnc4n3C)CC2)c(F)c1)C([2H])([2H])[2H]` [Example 1ad5, 4-[1-[[4-(4-Amino-2-oxo-1-pyridyl)-1-methyl-pyrrolo[2,3-b]pyridin-2-yl]methyl]-3,6-dihydro-2H-pyridin-4-yl]-3-fluoro-5-methyl-N,N-bis(trideuteriomethyl)-benzamide], for which the EC50 amounted to 5.21 nM. `CNc1ccn(-c2ccnc3c2cc(CN2CCC(c4c(F)cc(C(=O)N(C)C)cc4F)CC2)n3C)c(=O)c1F` [Example 1m116, 3,5-difluoro-4-(1-((4-(3-fluoro-4-(methylamino)-2-oxopyridin-1 (2H)-yl)-1-methyl-1H-pyrrolo[2,3-b]pyridin-2-yl)methyl)piperidin-4-yl)-N,N-dimethylbenzamide]: the 50% effective concentration (EC50) worked out at 229 nM. As for `C[C@H](c1cc2c(-n3ccc(N)c(F)c3=O)ccnc2n1C)N1CC=C(c2ccc(C(=O)N(C)C)cn2)CC1` (single isomer, unassigned) [Example 1m76], under “given for test compounds with <80% Emax”, the Emax was < 20%. Consider `[2H]C([2H])([2H])N(C(=O)c1cc(F)c(C2CCN(Cc3cc4c(-n5ccc(NC)cc5=O)ccnc4n3C)CC2)c(F)c1)C([2H])([2H])[2H]` [Example 1m102, 3,5-difluoro-N,N-bis(methyl-d3)-4-(1-((1-methyl-4-(4-(methylamino)-2-oxopyridin-1 (2H)-yl)-1H-pyrrolo[2,3-b]pyridin-2-yl)methyl)piperidin-4-yl)benzamide], for which the EC50 worked out at 23.4 nM. The same measure, in the same setting: with `CNc1ccn(-c2ccnc3c2cc([C@@H](C)N2CCC(c4c(C)cc(C(=O)N(C)C)cc4F)CC2)n3C)c(=O)c1` [Example 1m108, (R)-3-fluoro-N,N,5-trimethyl-4-(1-(1-(1-methyl-4-(4-(methylamino)-2-oxopyridin-1 (2H)-yl)-1H-pyrrolo[2,3-b]pyridin-2-yl)ethyl)piperidin-4-yl)benzamide] the figure was 317 nM.

As for `CNc1c(F)cn(-c2ccnc3c2cc([C@H](C)N2CC=C(c4c(C)cc(C(=O)N(C)C)cc4F)CC2)n3C)c(=O)c1F` [Example 1m140, (S)-4-(1-(1-(4-(3,5-difluoro-4-(methylamino)-2-oxopyridin-1 (2H)-yl)-1-methyl-1H-pyrrolo[2,3-b]pyridin-2-yl)ethyl)-1,2,3,6-tetrahydropyridin-4-yl)-3-fluoro-N,N,5-trimethylbenzamide], the EC50 worked out at 16.1 nM.

Regarding `Cc1cc(C(=O)N(C)C)ccc1C1=CCN([C@@H](C)c2cc3c(-n4ccc(N)c(F)c4=O)ccnc3n2C)CC1` [Example 1m84, (S)-4-(1-(1-(4-(4-amino-3-fluoro-2-oxopyridin-1 (2H)-yl)-1-methyl-1H-pyrrolo[2,3-b]pyridin-2-yl)ethyl)-1,2,3,6-tetrahydropyridin-4-yl)-N,N,3-trimethylbenzamide], the concentration for a half-maximal effect (EC50) was 3.69 nM.

In the case of `CNc1ccn(-c2ccnc3c2cc([C@H](C)N2CC=C(c4c(C)cc(C(=O)N(C)C)cc4F)CC2)n3C)c(=O)c1` [Example 1af82, (S)-3-fluoro-N,N,5-trimethyl-4-(1-(1-(1-methyl-4-(4-(methylamino)-2-oxopyridin-1 (2H)-yl)-1H-pyrrolo[2,3-b]pyridin-2-yl)ethyl)-1,2,3,6-tetrahydropyridin-4-yl)benzamide], the EC50 was found to be 2.61 nM. In the case of `CN(C)C(=O)c1ccc(C2=CCN(Cc3cc4c(-n5ccc6c(c5=O)CCN6)ccnc4n3C)CC2)c(C2CC2)c1` [Example 1m113, cyclopropyl-N-dimethyl-4-(1-((1-methyl-4-(4-oxo-1,2,3,4-tetrahydro-5H-pyrrolo[3,2-c]pyridin-5-yl)-1H-pyrrolo[2,3-b]pyridin-2-yl)methyl)-1,2,3,6-tetrahydropyridin-4-yl)benzamide], the EC50 was found to be 30 nM. Still for that read-out and setting: with `CNc1cc(=O)n(-c2ccnc3c2cc([C@@H](C)N2CCC(c4c(C)cc(C(=O)N(C)C)cc4F)CC2)n3C)cc1F` [Example 1m130, (R)-3-fluoro-4-(1-(1-(4-(5-fluoro-4-(methylamino)-2-oxopyridin-1 (2H)-yl)-1-methyl-1H-pyrrolo[2,3-b]pyridin-2-yl)ethyl)piperidin-4-yl)-N,N,5-trimethylbenzamide] the figure was 22.5 nM; with `CNc1ccn(-c2ccnc3c2cc([C@H](C)N2CCC(c4c(C)cc(C(=O)N(C)C)cc4F)CC2)n3C)c(=O)c1` [Example 1m109, (S)-3-fluoro-N,N,5-trimethyl-4-(1-(1-(1-methyl-4-(4-(methylamino)-2-oxopyridin-1 (2H)-yl)-1H-pyrrolo[2,3-b]pyridin-2-yl)ethyl)piperidin-4-yl)benzamide], 10.8 nM; with `CNc1ccn(-c2ccnc3c2cc(C(C)N2CC=C(c4c(C)cc(C(=O)N(C)C)cc4F)C(F)(F)C2)n3C)c(=O)c1` (stereo not shown) [Example 1m139, 4-(3,3-difluoro-1-(1-(1-methyl-4-(4-(methylamino)-2-oxopyridin-1 (2H)-yl)-1H-pyrrolo[2,3-b]pyridin-2-yl)ethyl)-1,2,3,6-tetrahydropyridin-4-yl)-3-fluoro-N,N,5-trimethylbenzamide], 50.2 nM.

For orientation: EC50 means the concentration needed to bring the measured effect to its halfway point. The Emax is the greatest response seen or fitted, relative to the assay's reference.
